Literature values as cited in patent publication US12390475B2, “Dry powder treprostinil for the treatment of pulmonary hypertension” (priority 2016, dated 2025).
Read-outs that look alike come from different tables or passages of the source.

Columns and labels:
[1] = aqueous titration with 20% ethanol as a co-solvent
[2] = various buffer solutions at various pH levels, octanol

## CCCCC[C@H](O)CC[C@@H]1[C@H]2Cc3cccc(OCC(=O)O)c3C[C@H]2C[C@H]1O [Treprostinil, 2-[[(1R,2R,3aS,9aS)-2-hydroxy-1-[(3S)-3-hydroxyoctyl]-2,3,3a,4,9,9a-hexahydro-1H-cyclopenta[g]naphthalen-5-yl]oxy]acetic acid]
[1]
  pKa: 4.5
[2]
  distribution coefficient: distribution into octanol layers at all pH levels
Unbuffered water and low pH buffers
  solubility: poorly soluble

## CCCCC[C@H](O)CC[C@@H]1[C@H]2Cc3cccc(OCC(=O)[O-])c3C[C@H]2C[C@H]1O.[Na+] [Treprostinil sodium]
In acetone
  solubility: very slightly soluble
In acetonitrile
  solubility: practically insoluble
In ethanol
  solubility: very soluble
In ethyl acetate
  solubility: practically insoluble
In n-hexane
  solubility: practically insoluble
In water
  solubility: very soluble
